Reference: patent US20260265195A1, “SARM1 MODULATORS, PREPARATIONS, AND USES THEREOF” (SIRONAX LTD, priority 2022, published 2026)

Biological target: T1, SARM1 (50-724) (Homo sapiens, UniProt Q6SZW1)
T1 construct: Purified SARM1 (50-724) with a final concentration of 2 nM
T1 sequence (Q6SZW1 50-724): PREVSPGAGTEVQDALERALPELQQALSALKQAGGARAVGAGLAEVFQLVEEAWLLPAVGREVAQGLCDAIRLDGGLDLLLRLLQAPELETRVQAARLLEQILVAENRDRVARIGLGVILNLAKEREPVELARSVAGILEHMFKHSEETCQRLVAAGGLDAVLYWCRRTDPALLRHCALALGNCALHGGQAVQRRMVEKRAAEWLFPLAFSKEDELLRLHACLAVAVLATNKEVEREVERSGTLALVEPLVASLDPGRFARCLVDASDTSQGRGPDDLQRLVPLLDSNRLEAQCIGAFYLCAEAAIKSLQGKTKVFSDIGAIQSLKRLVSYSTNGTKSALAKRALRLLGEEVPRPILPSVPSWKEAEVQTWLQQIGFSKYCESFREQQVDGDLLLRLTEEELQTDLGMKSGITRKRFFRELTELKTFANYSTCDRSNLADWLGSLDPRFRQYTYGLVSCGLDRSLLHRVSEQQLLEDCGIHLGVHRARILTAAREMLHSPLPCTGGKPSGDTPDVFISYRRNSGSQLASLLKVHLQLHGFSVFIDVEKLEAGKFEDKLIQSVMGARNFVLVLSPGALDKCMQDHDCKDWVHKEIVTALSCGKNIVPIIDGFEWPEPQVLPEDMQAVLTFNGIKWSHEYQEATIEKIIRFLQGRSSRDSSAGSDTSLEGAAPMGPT
Assay: SARM1 (50-724) enzymatic assay (NMN-activated NAD+ hydrolysis, LC-MS/MS readout)
Type: biochemical
Conditions: purified SARM1 (50-724) 2 nM, 200 μM NMN activator, 100 μM NAD+ substrate, 1 h at room temperature, read-out: IC50 (SARM1 inhibitory activity)
Experimental: Example II. SARM1 (50-724) Enzymatic Assay
An enzymatic assay was performed in a 384-well plate using Dulbecco's phosphate-buffered saline (PBS) as the reaction buffer. Purified SARM1 (50-724) with a final concentration of 2 nM was pre-incubated with a test compound at 1% DMSO final assay concentration for 15 min at room temperature. The reaction was initiated by adding a mixture of 200 μM nicotinamide mononucleotide (NMN) as activator and 100 μM NAD^+ as substrate. After 1 h of incubation at room temperature, the reaction was terminated with 10 times volume of 70% acetonitrile, then centrifuged at 3800 rpm for 10 min. The samples were analyzed using LC-MS/MS after diluted to a proper concentration by 10 mM ammonium acetate (pH 9.75).
ND means “not determined.”

Structure (SMILES) | IC50 [nM]
Cc1cccc(N(C)C(=O)c2[nH]c3ccc(C)cc3c2CO)c1 [Compound 43, 3-(hydroxymethyl)-N,5-dimethyl-N-(m-tolyl)-1H-indole-2-carboxamidc] | ≥ 1000
Cc1ccc2[nH]c(C(=O)N(C)c3cccc(Cl)c3Cl)c(CO)c2c1 [Compound 1, N-(2,3-dichlorophenyl)-3-(hydroxymethyl)-N,5-dimethyl-1H-indole-2-carboxamide] | ≤ 100
COC(=O)C(C)(C)c1ccc2[nH]c(C(=O)N(CC3(F)COC3)c3cccc(Cl)c3Cl)nc2c1 [Compound 204] | ≤ 100
Cc1ccc2[nH]c(C(=O)NC(C)CC(C)C)c(CNc3ccccn3)c2c1 (centres unmarked) [Compound 89, 5-methyl-N-(4-methylpentan-2-yl)-3-((pyridin-2-ylamino)methyl)-1H-indole-2-carboxamide] | 501 to 1000
Cc1ccc2[nH]c(C(=O)N(C)c3ccc(Cl)c(Cl)c3)c(CO)c2c1 [Compound 12] | ≥ 1000
COc1ccc2c(CO)c(C(=O)N(C)C3CCCC3)[nH]c2c1 [Compound 29, N-cyclopentyl-3-(hydroxymethyl)-6-methoxy-N-methyl-1H-indole-2-carboxamide] | ≥ 1000
Cc1ccc2[nH]c(C(=O)N(C)c3cccnc3)c(CO)c2c1 [Compound 22, 3-(hydroxymethyl)-N,5-dimethyl-N-(pyridin-3-yl)-1H-indole-2-carboxamide] | ≥ 1000
Cc1ccc2[nH]c(C(=O)N(C)C3CCCC3)c(CNc3cncs3)c2c1 [Compound 78, N-cyclopentyl-N,5-dimethyl-3-((thiazol-5-ylamino)methyl)-1H-indole-2-carboxamide] | 101 to 500
Cc1ccc2[nH]c(C(=O)N(C)C3CCCC3)nc2c1C [Compound 92, N-cyclopentyl-N,6,7-trimethyl-1H-benzo[d]imidazole-2-carboxamide] | 101 to 500
Cc1nc(C(=O)N(C)C2CCCC2)[nH]c1C [Compound 59, N-cyclopentyl-N,4,5-trimethyl-1H-imidazole-2-carboxamide] | ≥ 1000
O=C(c1nc2cc(C(F)(F)F)cc(F)c2[nH]1)N(c1cccc(F)c1Cl)C1CCS(=O)(=O)CC1 [Compound 130] | ≤ 100
Cc1ccc2[nH]c(C(=O)N(C)C3CCCC3)c(COc3nccs3)c2c1 [Compound 75, N-cyclopentyl-N,5-dimethyl-3-((thiazol-2-yloxy)methyl)-1H-indole-2-carboxamide] | 501 to 1000
Cc1ccc2[nH]c(C(=O)N(C)C3CCCCC3)nc2c1 [Compound 47, N-cyclohexyl-N,5-dimethyl-1H-benzo[d]imidazole-2-carboxamide] | 101 to 500
Cc1ccc2[nH]c(C(=O)N(C)C3CCOCC3)c(CNc3ccccn3)c2c1 [Compound 90, N,5-dimethyl-3-((pyridin-2-ylamino)methyl)-N-(tetrahydro-2H-pyran-4-yl)-1H-indole-2-carboxamide] | ≥ 1000
Cc1ccc2[nH]c(C(=O)N(C)C3CCCC3)c(CNc3cn[nH]c3)c2c1 [Compound 81, 3-(((1H-pyrazol-4-yl)amino)methyl)-N-cyclopentyl-N,5-dimethyl-1H-indole-2-carboxamide] | ≥ 1000
Cc1ccc2[nH]c(C(=O)NC3CCCC3)c(CO)c2c1 [Compound 26, N-cyclopenty1-3-(hydroxymethyl)-5-methyl-1H-indole-2-carboxamide] | ≥ 1000
Cc1ccc2[nH]c(C(=O)N(C)c3ccc(Cl)c(C(F)(F)F)c3)c(CO)c2c1 [Compound 11, N-(4-chloro-3-(trifluoromethyl)phenyl)-3-(hydroxymethyl)-N,5-dimethyl-1H-indole-2-carboxamide] | ≥ 1000
CN(C(=O)c1nc2c([nH]1)CCCC2)C1CCCC1 [Compound 58, N-cyclopentyl-N-methyl-4,5,6,7-tetrahydro-1H-benzo[d]imidazole-2-carboxamide] | ≥ 1000

More lines, now with the values ahead:

IC50 [nM] | Structure (SMILES)
≤ 100 | O=C(c1nc2cc(C(F)(F)F)ccc2[nH]1)N(CCOCCO)c1cccc(Cl)c1Cl [Compound 128, N-(2,3-dichlorophenyl)-N-(2-(2-hydroxyethoxy)ethyl)-5-(trifluoromethyl)-1H-benzo[d]imidazole-2-carboxamide]
≤ 100 | CC(C)(C)c1ccc2[nH]c(C(=O)N(CCO)c3cccc(F)c3Cl)nc2c1 [Compound 201]
≤ 100 | O=C(c1nc2cc(C(F)(F)F)ccc2[nH]1)N(CC1CC(O)C1)c1cccc(F)c1Cl (centres unmarked) [Compound 194, N-(2-chloro-3-fluorophenyl)-N-((3-hydroxycyclobutyl)methyl)-5-(trifluoromethyl)-1H-benzo[d]imidazole-2-carboxamide]
≤ 100 | CC1(CN(C(=O)c2nc3cc(C(F)(F)F)ccc3[nH]2)c2cccc(Cl)c2Cl)COC1 [Compound 181, N-(2,3-dichlorophenyl)-N-((3-methyloxetan-3-yl)methyl)-5-(trifluoromethyl)-1H-benzo[d]imidazole-2-carboxamide]
101 to 500 | O=C(c1nc2cc(C(F)(F)F)ccc2[nH]1)N(CC(F)(F)CO)c1cc(F)c(F)cc1Cl [Compound 220, N-(2-chloro-4,5-difluorophenyl)-N-(2,2-difluoro-3-hydroxypropyl)-5-(trifluoromethyl)-1H-benzo[d]imidazole-2-carboxamide]
≤ 100 | O=C(c1nc2cc(C(F)(F)F)ccc2[nH]1)N(CC(F)(F)CO)c1cc(F)cc(F)c1Cl [Compound 218, N-(2-chloro-3,5-difluorophenyl)-N-(2,2-difluoro-3-hydroxypropyl)-5-(trifluoromethyl)-1H-benzo[d]imidazole-2-carboxamide]
≤ 100 | Cc1ccc2[nH]c(C(=O)N(C)c3cccc(Cl)c3Cl)nc2c1 [Compound 123, N-(2,3-dichlorophenyl)-N,5-dimethyl-1H-benzimidazole-2-carboxamide]
≤ 100 | O=C(c1nc2cc(C3CC3)ccc2[nH]1)N(CC(F)(F)CO)c1cccc(F)c1Cl [Compound 210]
≤ 100 | CS(=O)(=O)NCCN(C(=O)c1nc2cc(C(F)(F)F)ccc2[nH]1)c1cccc(Cl)c1Cl [Compound 147, N-(2,3-dichlorophenyl)-N-(2-(methylsulfonamido)ethyl)-5-(trifluoromethyl)-1H-benzo[d]imidazole-2-carboxamide]
≤ 100 | Cc1c(Cl)cncc1N(CCO)C(=O)c1nc2cc(C(F)(F)F)ccc2[nH]1 [Compound 148, N-(5-chloro-4-methylpyridin-3-yl)-N-(2-hydroxyethyl)-5-(trifluoromethyl)-1H-benzo[d]imidazole-2-carboxamide]
≤ 100 | CN=S(C)(=O)CCCN(C(=O)c1nc2cc(C(F)(F)F)ccc2[nH]1)c1cccc(F)c1Cl (centres unmarked) [Compound 225, N-(2-chloro-3-fluorophenyl)-N-(3-(N,S-dimethylsulfonimidoyl)propyl)-5-(trifluoromethyl)-1H-benzo[d]imidazole-2-carboxamide]
501 to 1000 | Cc1c(Cl)cncc1N(CCO)C(=O)c1nc2c(Cl)c(Cl)ccc2[nH]1 [Compound 175]
≤ 100 | CC(C)(O)c1ccc2[nH]c(C(=O)N(CC3(F)COC3)c3cccc(Cl)c3Cl)nc2c1 [Compound 183]
≤ 100 | O=C(c1nc2cc(C3CCCO3)ccc2[nH]1)N(CCO)c1cccc(Cl)c1Cl (racemic) [Compound 196]
≤ 100 | O=C(c1nc2cc(C(F)(F)F)ccc2[nH]1)N(CC(F)(F)C(=O)O)c1cccc(Cl)c1Cl [Compound 106, 3-(N-(2,3-dichlorophenyl)-6-(trifluoromethyl)-1H-benzo[d]imidazole-2-carboxamido)-2,2-difluoropropanoic acid]
≤ 100 | CNC(=O)CN(C(=O)c1nc2cc(C(F)(F)F)ccc2[nH]1)c1cccc(Cl)c1Cl [Compound 182, N-(2,3-dichlorophenyl)-N-(2-(methylamino)-2-oxoethyl)-5-(trifluoromethyl)-1H-benzo[d]imidazole-2-carboxamide]
≤ 100 | O=C(c1nc2cc(C(F)(F)F)ccc2[nH]1)N(CCO)c1cnccc1C(F)(F)F [Compound 20, N-(2-hydroxyethyl)-5-(trifluoromethyl)-N-(4-(trifluoromethyl)pyridin-3-yl)-1H-benzo[d]imidazole-2-carboxamide]
≤ 100 | O=C(c1nc2cc(C3CC3)ccc2[nH]1)N(CC(F)(F)CO)c1ccc(F)c(F)c1Cl [Compound 222]
101 to 500 | Cc1csc(-c2ccc3[nH]c(C(=O)N(CCO)c4cccc(Cl)c4Cl)nc3c2)n1 [Compound 153]
≤ 100 | O=C(c1nc2cc(C(F)(F)F)ccc2[nH]1)N(CC(F)(F)CO)c1cccc(F)c1Cl [Compound 185, N-(2-chloro-3-fluorophenyl)-N-(2,2-difluoro-3-hydroxypropyl)-5-(trifluoromethyl)-1H-benzo[d]imidazole-2-carboxamide]
